Holding throughout (assay type): functional
In one test the test system is Klebsiella pneumoniae. Kind of test: In vitro antibacterial activity against Klebsiella X26.
The next test deals with Klebsiella aerogenes. Kind of test: In vitro antibacterial activity against Enterobacter aerogenes C32.
The subject of another test is Haemophilus influenzae. In words: In vitro antibacterial activity against Haemophilus influenza C.L.
The next test deals with Staphylococcus aureus. Kind of test: In vitro antibacterial activity against Staphylococcus aureus X1.1.
The subject of a further test is Escherichia coli. In words: In vitro antibacterial activity against Escherichia coli EC14.
Another test deals with Pseudomonas aeruginosa. Kind of test: In vitro antibacterial activity against Pseudomonas PS72.
In test [1] the test system is Staphylococcus epidermidis. Kind of test: In vitro antibacterial activity against Staphylococcus epidermidis 222.
The next test concerns Streptococcus pneumoniae. Kind of test: In vitro antibacterial activity against Streptococcus pneumoniae PARK.

The structures appear in SMILES notation. ≈ marks a conversion by molar mass, not a printed value.

Turning to `CS(=O)(=O)C1=C(C(=O)O)N2C(=O)[C@@H](NC(=O)/C(=N/OCCF)c3csc(N)n3)CN2C1`, the MIC against Klebsiella pneumoniae worked out at 0.03 µg/mL (≈ 0.063 µM); in the test on Klebsiella aerogenes it was 0.06 µg/mL (≈ 0.126 µM); in the test on Haemophilus influenzae, 0.25 µg/mL (≈ 0.525 µM); against Staphylococcus aureus it was 16 µg/mL (≈ 33.6 µM); against Escherichia coli it was 0.015 µg/mL (≈ 0.0315 µM); in the test with Pseudomonas aeruginosa it was 128 µg/mL (≈ 269 µM). In addition, the MIC in test [1] is 16 µg/mL (≈ 33.6 µM); in the test with Streptococcus pneumoniae, 0.06 µg/mL (≈ 0.126 µM).

With `N#CC1=C(C(=O)O)N2C(=O)[C@@H](NC(=O)CSc3cc(Cl)ccc3Cl)CN2C1`, the MIC in the test on Klebsiella pneumoniae was 8 µg/mL (≈ 18.7 µM); against Klebsiella aerogenes it was > 128 µg/mL; with Haemophilus influenzae, 8 µg/mL (≈ 18.7 µM); in the test on Staphylococcus aureus it was 1 µg/mL (≈ 2.34 µM); against Escherichia coli, > 128 µg/mL; against Pseudomonas aeruginosa it was > 128 µg/mL. In addition, the MIC in test [1] was 4 µg/mL (≈ 9.36 µM); in the test on Streptococcus pneumoniae, 0.125 µg/mL (≈ 0.293 µM).

As for `CCCCO/N=C(/C(=O)N[C@H]1CN2CC(S(C)(=O)=O)=C(C(=O)O)N2C1=O)c1csc(N)n1`, the MIC with Klebsiella pneumoniae was 0.03 µg/mL (≈ 0.0617 µM); against Klebsiella aerogenes it was 1 µg/mL (≈ 2.06 µM); with Haemophilus influenzae, 0.125 µg/mL (≈ 0.257 µM); with Staphylococcus aureus, 4 µg/mL (≈ 8.22 µM); against Escherichia coli, 0.25 µg/mL (≈ 0.514 µM); in the test on Pseudomonas aeruginosa it was > 128 µg/mL. Besides, the MIC turned out to be 4 µg/mL (≈ 8.22 µM) in test [1] and 0.06 µg/mL (≈ 0.123 µM) in the test with Streptococcus pneumoniae.

For the molecule `CCCO/N=C(/C(=O)N[C@H]1CN2CC(S(=O)(=O)CCC)=C(C(=O)O)N2C1=O)c1csc(N)n1`, the MIC was 0.06 µg/mL (≈ 0.12 µM) in the test on Klebsiella pneumoniae; 1 µg/mL (≈ 2 µM) against Klebsiella aerogenes; 0.5 µg/mL (≈ 0.999 µM) in the test with Haemophilus influenzae; 16 µg/mL (≈ 32 µM) against Staphylococcus aureus; 0.5 µg/mL (≈ 0.999 µM) in the test on Escherichia coli; > 128 µg/mL with Pseudomonas aeruginosa. The MIC was found to be 32 µg/mL (≈ 63.9 µM) in test [1] and 0.125 µg/mL (≈ 0.25 µM) against Streptococcus pneumoniae.

Consider `C=CCO/N=C(/C(=O)N[C@H]1CN2CC(S(C)(=O)=O)=C(C(=O)O)N2C1=O)c1csc(N)n1`, for which the MIC in the test with Klebsiella pneumoniae was 0.03 µg/mL (≈ 0.0638 µM); against Klebsiella aerogenes, 0.25 µg/mL (≈ 0.531 µM); against Haemophilus influenzae, 0.125 µg/mL (≈ 0.266 µM); against Staphylococcus aureus, 8 µg/mL (≈ 17 µM); in the test with Escherichia coli, 0.125 µg/mL (≈ 0.266 µM); against Pseudomonas aeruginosa, 128 µg/mL (≈ 272 µM). For the same molecule, the MIC in test [1] was 16 µg/mL (≈ 34 µM); with Streptococcus pneumoniae it was 0.125 µg/mL (≈ 0.266 µM).

For `C#CCO/N=C(/C(=O)N[C@H]1CN2CC(S(C)(=O)=O)=C(C(=O)O)N2C1=O)c1csc(N)n1`, the MIC in the test with Klebsiella pneumoniae was 0.125 µg/mL (≈ 0.267 µM); with Klebsiella aerogenes, 0.5 µg/mL (≈ 1.07 µM); with Haemophilus influenzae, 0.25 µg/mL (≈ 0.534 µM); in the test on Staphylococcus aureus, 32 µg/mL (≈ 68.3 µM); against Escherichia coli, 0.25 µg/mL (≈ 0.534 µM); in the test with Pseudomonas aeruginosa it was > 128 µg/mL. For the same molecule, the values for the MIC (in test [1]; in the test with Streptococcus pneumoniae) were 32 µg/mL (≈ 68.3 µM) and 0.25 µg/mL (≈ 0.534 µM), respectively.

For the molecule `C=CCCCO/N=C(/C(=O)N[C@H]1CN2CC(S(C)(=O)=O)=C(C(=O)O)N2C1=O)c1csc(N)n1`, the MIC came out at 0.06 µg/mL (≈ 0.12 µM) against Klebsiella pneumoniae; 1 µg/mL (≈ 2.01 µM) against Klebsiella aerogenes; 0.25 µg/mL (≈ 0.501 µM) against Haemophilus influenzae; 8 µg/mL (≈ 16 µM) with Staphylococcus aureus; 0.25 µg/mL (≈ 0.501 µM) with Escherichia coli; 128 µg/mL (≈ 257 µM) in the test with Pseudomonas aeruginosa. The MIC in test [1] came out at 8 µg/mL (≈ 16 µM); against Streptococcus pneumoniae, 0.5 µg/mL (≈ 1 µM).

On to `C=CCO/N=C(/C(=O)N[C@H]1CN2CC(S(=O)(=O)CC=C)=C(C(=O)O)N2C1=O)c1csc(N)n1`, for which the MIC was 0.03 µg/mL (≈ 0.0604 µM) in the test on Klebsiella pneumoniae; 0.5 µg/mL (≈ 1.01 µM) in the test on Klebsiella aerogenes; 0.25 µg/mL (≈ 0.503 µM) in the test with Haemophilus influenzae; 8 µg/mL (≈ 16.1 µM) in the test on Staphylococcus aureus; 0.125 µg/mL (≈ 0.252 µM) against Escherichia coli; > 128 µg/mL against Pseudomonas aeruginosa. Moreover, the MIC in test [1] turned out to be 32 µg/mL (≈ 64.4 µM); against Streptococcus pneumoniae it was 0.125 µg/mL (≈ 0.252 µM).

In the case of `N#CC1=C(C(=O)O)N2C(=O)[C@@H](NC(=O)Cc3csc(N)n3)CN2C1`, the MIC against Klebsiella pneumoniae was 16 µg/mL (≈ 45.9 µM); in the test with Klebsiella aerogenes, 32 µg/mL (≈ 91.9 µM); against Haemophilus influenzae, 32 µg/mL (≈ 91.9 µM); in the test on Staphylococcus aureus it was 32 µg/mL (≈ 91.9 µM); against Escherichia coli it was 16 µg/mL (≈ 45.9 µM); in the test with Pseudomonas aeruginosa it was > 128 µg/mL. The values for the MIC (in test [1]; against Streptococcus pneumoniae) were 64 µg/mL (≈ 184 µM) and 2 µg/mL (≈ 5.74 µM), respectively.

For the molecule `CCS(=O)(=O)C1=C(C(=O)O)N2C(=O)[C@@H](NC(=O)/C(=N/OCCF)c3csc(N)n3)CN2C1`, the MIC was 0.03 µg/mL (≈ 0.0612 µM) in the test on Klebsiella pneumoniae; 0.125 µg/mL (≈ 0.255 µM) in the test on Klebsiella aerogenes; 0.25 µg/mL (≈ 0.51 µM) in the test with Haemophilus influenzae; 16 µg/mL (≈ 32.6 µM) with Staphylococcus aureus; 0.06 µg/mL (≈ 0.122 µM) against Escherichia coli; > 128 µg/mL in the test with Pseudomonas aeruginosa. The MIC in test [1] is 32 µg/mL (≈ 65.2 µM); against Streptococcus pneumoniae it was 0.125 µg/mL (≈ 0.255 µM).
